Read-outs that look alike come from different tables or passages of the source.
Molecular target: T1, G protein-coupled receptor 119 (GPR-119) (Mesocricetus auratus, UniProt A0A1U8CD06)
T1 construct: hamster-derived β-cells containing G protein-coupled receptor 119 (GPR-119), HIT-T15 cells; host or cells: HIT-T15 (hamster pancreatic β-cells)
T1 sequence (A0A1U8CD06 1-334): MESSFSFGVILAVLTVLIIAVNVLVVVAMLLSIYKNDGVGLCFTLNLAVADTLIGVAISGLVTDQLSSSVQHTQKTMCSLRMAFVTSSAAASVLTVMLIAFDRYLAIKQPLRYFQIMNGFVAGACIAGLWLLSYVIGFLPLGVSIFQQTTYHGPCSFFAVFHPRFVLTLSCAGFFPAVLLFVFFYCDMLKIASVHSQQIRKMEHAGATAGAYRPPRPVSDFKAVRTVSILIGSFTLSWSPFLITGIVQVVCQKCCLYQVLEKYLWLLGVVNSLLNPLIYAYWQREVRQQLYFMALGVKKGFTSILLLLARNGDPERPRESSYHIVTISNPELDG
Assay: Evaluation of cAMP activity in HIT-T15 cells (HTRF cAMP dynamic kit)
Type: cell-based, hamster
Conditions: cAMP activation
Method: To check whether the cyclohexene derivatives according to the present invention activate cyclic adenosine monophosphate (cAMP), experiments were carried out, as follows.
The HIT-T15 cells were plated on a 96-well plate at 60,000 cells per well. On the next day of plating, the cells were treated with a varying concentration of each of the example compounds according to the present invention, and incubated at 37° C. for an hour. In this case, each of the treated compounds was used at six concentrations, ranging from […], to treat the cells.
The cyclic adenosine monophosphate (cAMP) activity was measured according to the manufacturer's instruction using a cAMP dynamic kit commercially available from Cis Bio Inc. (Bedford, Mass.). The cells were lysed, and a level of cAMP was determined by a competitive immunoassay using D2-labeled cAMP and a cryptate-labeled anti-cAMP antibody. Fluorescence was read in Flex Station (Molecular Devices). […] Unlabeled cAMP in the cell lysate competed with the D2-labeled cAMP against the cryptate-labeled antibody. Since a decrease in the measured intensity of the FRET signals represents a level of cAMP in the cells, the cAMP activities of the compounds are calculated as a change in FRET signals by adjusting an amount of dimethyl sulfoxide (DMSO).

[1] = 1 h at 37° C., six concentrations, read-out: EC50

SMILES | EC50 [1] [nM] | EC50 (read-out: EC50 value) [nM]
CCc1cnc(N2CCC(COc3ccc(C4=CCC(C(=O)NC[C@@H](C)O)CC4)cc3)CC2)nc1 (stereo partly drawn) [Example 30, 4-(4-((1-(5-ethylpyrimidin-2-yl)piperidin-4-yl)methoxy)phenyl)-N-((R)-2-hydroxypropyl)cyclohex-3-enecarboxamide] | 105 | 
CC(C)c1noc(N2CCC(COc3ccc(C4=CCC(C(=O)NCCO)CC4)cc3)CC2)n1 (stereo not shown) [Example 31, N-(2-hydroxyethyl)-4-(4-((1-(3-isopropyl-1,2,4-oxadiazol-5-yl)piperidin-4-yl)methoxy)phenyl)cyclohex-3-enecarboxamide] | 260 | 
CC(C)(C)OC(=O)N1CCC(COc2ccc(C3=CCC(C(=O)NC[C@@H](O)CO)CC3)cn2)CC1 (stereo partly drawn) [Example 32, tert-butyl 4-((5-(4-((R)-2,3-dihydroxypropylcarbamoyl)cyclohex-1-enyl)pyridin-2-yloxy)methyl)piperidine-1-carboxylate] | 650 | 
CC(C)(C)OC(=O)N1CCC(COc2ccc(C3=CCC(C(=O)NC[C@H](O)CO)CC3)cn2)CC1 (stereo partly drawn) [Example 33, tert-butyl 4-((5-(4-((S)-2,3-dihydroxypropylcarbamoyl)cyclohex-1-enyl)pyridin-2-yloxy)methyl)piperidine-1-carboxylate] | 600 | 
CC(C)c1noc(N2CCC(COc3ccc(C4=CCC(C(=O)N(C)CCO)CC4)cc3)CC2)n1 (stereo not shown) [Example 34, N-(2-hydroxyethyl)-4-(4-((1-(3-isopropyl-1,2,4-oxadiazol-5-yl)piperidin-4-yl)methoxy)phenyl)-N-methylcyclohex-3-enecarboxamide] | 21 | ≤ 50
CCN(CCO)C(=O)C1CC=C(c2ccc(OCC3CCN(c4nc(C(C)C)no4)CC3)cc2)CC1 (stereo not shown) [Example 35, N-ethyl-N-(2-hydroxyethyl)-4-(4-((1-(3-isopropyl-1,2,4-oxadiazol-5-yl)piperidin-4-yl)methoxy)phenyl)cyclohex-3-enecarboxamide] | 22 | ≤ 50
CC(C)c1noc(N2CCC(COc3ccc(C4=CCC(C(=O)N[C@H](C)CO)CC4)nc3)CC2)n1 (stereo partly drawn) [Example 36, N-((R)-1-hydroxypropan-2-yl)-4-(5-((1-(3-isopropyl-1,2,4-oxadiazol-5-yl)piperidin-4-yl)methoxy)pyridin-2-yl)cyclohex-3-enecarboxamide] | 170 | 
CC(C)c1noc(N2CCC(COc3ccc(C4=CCC(C(=O)N[C@@H](C)CO)CC4)nc3)CC2)n1 (stereo partly drawn) [Example 37, N-((S)-1-hydroxypropan-2-yl)-4-(5-((1-(3-isopropyl-1,2,4-oxadiazol-5-yl)piperidin-4-yl)methoxy)pyridin-2-yl)cyclohex-3-enecarboxamide] | 300 | 
CC(C)c1noc(N2CCC(COc3ccc(C4=CCC(C(=O)NC[C@@H](C)O)CC4)nc3)CC2)n1 (stereo partly drawn) [Example 38, N-((R)-2-hydroxypropyl)-4-(5-((1-(3-isopropyl-1,2,4-oxadiazol-5-yl)piperidin-4-yl)methoxy)pyridin-2-yl)cyclohex-3-enecarboxamide] | 450 | 
CC(C)c1noc(N2CCC(COc3ccc(C4=CCC(C(=O)NC[C@H](C)O)CC4)nc3)CC2)n1 (stereo partly drawn) [Example 39, N-((S)-2-hydroxypropyl)-4-(5-((1-(3-isopropyl-1,2,4-oxadiazol-5-yl)piperidin-4-yl)methoxy)pyridin-2-yl)cyclohex-3-enecarboxamide] | 350 | 
CC(C)c1noc(N2CCC(COc3ccc(C4=CCC(C(=O)NC[C@@H](O)CO)CC4)nc3)CC2)n1 (stereo partly drawn) [Example 40, N-((R)-2,3-dihydroxypropyl)-4-(5-((1-(3-isopropyl-1,2,4-oxadiazol-5-yl)piperidin-4-yl)methoxy)pyridin-2-yl)cyclohex-3-enecarboxamide] | 500 | 

Further lines, results first:

EC50 [1] [nM] | EC50 (read-out: EC50 value) [nM] | SMILES
650 |  | CC(C)c1noc(N2CCC(COc3ccc(C4=CCC(C(=O)NC[C@H](O)CO)CC4)nc3)CC2)n1 (stereo partly drawn) [Example 41, N-((S)-2,3-dihydroxypropyl)-4-(5-((1-(3-isopropyl-1,2,4-oxadiazol-5-yl)piperidin-4-yl)methoxy)pyridin-2-yl)cyclohex-3-enecarboxamide]
82 |  | CC(C)(C)OC(=O)N1CCC(COc2ccc(C3=CCC(C(=O)N4CC[C@H](O)C4)CC3)cn2)CC1 (stereo partly drawn) [Example 42, tert-butyl 4-((5-(4-((S)-3-hydroxypyrrolidine-1-carbonyl)cyclohex-1-enyl)pyridin-2-yloxy)methyl)piperidine-1-carboxylate]
85 |  | CC(C)(C)OC(=O)N1CCC(COc2ccc(C3=CCC(C(=O)N4CC[C@@H](O)C4)CC3)cn2)CC1 (stereo partly drawn) [Example 43, tert-butyl 4-((5-(4-((R)-3-hydroxypyrrolidine-1-carbonyl)cyclohex-1-enyl)pyridin-2-yloxy)methyl)piperidine-1-carboxylate]
13 | ≤ 50 | CC(C)(C)OC(=O)N1CCC(COc2ccc(C3=CCC(C(=O)N4CC[C@H](O)C4)CC3)cc2F)CC1 (stereo partly drawn) [Example 44, tert-butyl 4-((2-fluoro-4-(4-((S)-3-hydroxypyrrolidine-1-carbonyl)cyclohex-1-enyl)phenoxy)methyl)piperidine-1-carboxylate]
25 | ≤ 50 | CC(C)(C)OC(=O)N1CCC(COc2ccc(C3=CCC(C(=O)N4CC[C@@H](O)C4)CC3)cc2F)CC1 (stereo partly drawn) [Example 45, tert-butyl 4-((2-fluoro-4-(4-((R)-3-hydroxypyrrolidine-1-carbonyl)cyclohex-1-enyl)phenoxy)methyl)piperidine-1-carboxylate]
500 |  | CC(C)c1noc(N2CCC(COc3ccc(C4=CCC(C(=O)NC(CO)CO)CC4)nc3)CC2)n1 (stereo not shown) [Example 46, N-(1,3-dihydroxypropan-2-yl)-4-(5-((1-(3-isopropyl-1,2,4-oxadiazol-5-yl)piperidin-4-yl)methoxy)pyridin-2-yl)cyclohex-3-enecarboxamide]
150 |  | CC(C)c1noc(N2CCC(COc3ccc(C4=CCC(C(=O)NCC(C)(C)CO)CC4)nc3)CC2)n1 (stereo not shown) [Example 47, N-(3-hydroxy-2,2-dimethylpropyl)-4-(5-((1-(3-isopropyl-1,2,4-oxadiazol-5-yl)piperidin-4-yl)methoxy)pyridin-2-yl)cyclohex-3-enecarboxamide]
26 | ≤ 50 | CC(C)c1noc(N2CCC(COc3ccc(C4=CCC(C(=O)N5CC[C@H](O)C5)CC4)cc3)CC2)n1 (stereo partly drawn) [Example 49, ((S)-3-hydroxypyrrolidin-1-yl)(4-(4-((1-(3-isopropyl-1,2,4-oxadiazol-5-yl)piperidin-4-yl)methoxy)phenyl)cyclohex-3-enyl)methanone]
95 |  | CCc1cnc(N2CCC(COc3ccc(C4=CCC(C(=O)NCC(F)F)CC4)cc3)CC2)nc1 (stereo not shown) [Example 50, N-(2,2-difluoroethyl)-4-(4-((1-(5-ethylpyrimidin-2-yl)piperidin-4-yl)methoxy)phenyl)cyclohex-3-enecarboxamide]
66 |  | CC(C)c1noc(N2CCC(COc3ccc(C4=CCC(C(=O)NCC(F)F)CC4)cc3)CC2)n1 (stereo not shown) [Example 51, N-(2,2-difluoroethyl)-4-(4-((1-(3-isopropyl-1,2,4-oxadiazol-5-yl)piperidin-4-yl)methoxy)phenyl)cyclohex-3-enecarboxamide]
55 |  | CC(C)c1noc(N2CCC(COc3ccc(C4=CCC(C(=O)N5CCCC5)CC4)cc3)CC2)n1 (stereo not shown) [Example 52, (4-(4-((1-(3-isopropyl-1,2,4-oxadiazol-5-yl)piperidin-4-yl)methoxy)phenyl)cyclohex-3-enyl)(pyrrolidin-1-yl)methanone]
21 | ≤ 50 | CC(C)c1noc(N2CCC(COc3ccc(C4=CCC(C(=O)N5CC[C@H](F)C5)CC4)cc3)CC2)n1 (stereo partly drawn) [Example 53, ((S)-3-fluoropyrrolidin-1-yl)(4-(4-((1-(3-isopropyl-1,2,4-oxadiazol-5-yl)piperidin-4-yl)methoxy)phenyl)cyclohex-3-enyl)methanone]
42 | ≤ 50 | CC(C)c1noc(N2CCC(COc3ccc(C4=CCC(C(=O)N5CC[C@@H](F)C5)CC4)cc3)CC2)n1 (stereo partly drawn) [Example 54, ((R)-3-fluoropyrrolidin-1-yl)(4-(4-((1-(3-isopropyl-1,2,4-oxadiazol-5-yl)piperidin-4-yl)methoxy)phenyl)cyclohex-3-enyl)methanone]
100 |  | CCc1cnc(N2CCC(COc3ccc(C4=CCC(C(=O)N5CCN(CC)CC5)CC4)cc3)CC2)nc1 (stereo not shown) [Example 55, (4-ethylpiperazin-1-yl)(4-(4-((1-(5-ethylpyrimidin-2-yl)piperidin-4-yl)methoxy)phenyl)cyclohex-3-enyl)methanone]
30 | ≤ 50 | CC(C)c1noc(N2CCC(COc3ccc(C4=CCC(C(=O)N5CCCCC5)CC4)cc3)CC2)n1 (stereo not shown) [Example 56, (4-(4-((1-(3-isopropyl-1,2,4-oxadiazol-5-yl)piperidin-4-yl)methoxy)phenyl)cyclohex-3-enyl)(piperidin-1-yl)methanone]
